Values quoted from earlier work as cited in US20080206335A1, “[…] CONTROLLED RELEASE SELECTIVE SEROTONIN […] INHIBITOR FORMULATIONS” (priority 1999, published 2008).

Conditions: steady state after multiple oral doses of 100 mg/day, healthy young volunteers

plasma elimination half-life: 15.6 h
SMILES: COCCCC/C(=N\OCCN)c1ccc(C(F)(F)F)cc1.O=C(O)/C=C\C(=O)O [fluvoxamine, 5-methoxy-4′-(trifluoromethyl)valerophenone-(E)-O-(2-aminoethyl) oxime maleate (1:1)]
